The numbers were not newly measured in PMC8522729 (Antimicrobial Agents and Chemotherapy, 2021), which cites them from elsewhere.

The test system of the data set is M. tuberculosis. The conditions noted are these: cited from earlier work.

Consider `O=C1CCc2c(OC[C@]3(O)CCN(c4c(F)cc(Cl)cc4F)C[C@H]3O)ccc(F)c2N1` [OPC-167832], for which the frequency of resistance was < 1.9 × 10^−7.
